Measured values taken from PMC5837957 (European journal of medicinal chemistry, 2018).
Where “and” joins values, the source holds several entries; their conditions need not be identical. Equal entries are not always repeated. Entries after “also recorded” stand apart in the source; their conditions may differ. Where two headings read alike, the source gives them in different places. Positions of bridges follow the written chain, without caps; N, C: chain ends. Residues, ends and D or L forms follow the SMILES beside them. *: point of attachment. Stearoyl = CCCCCCCCCCCCCCCCCC(=O)*; Octanoyl = CCCCCCCC(=O)*

Assays:
recombinant LSD1/CoREST = recombinant LSD1/CoREST (Homo sapiens, UniProt O60341); assay: In vitro LSD1 demethylation assay; format: biochemical; details: Table 3, truncated peptides; inhibitor 500 nM; 0.5 µM
[1] = test system: Calu-6 lung cancer cell line; details: for % cell death Calu 6: 72-hour treatment, inactive indicates no growth inhibition at a concentration of 100 µM; for IC50: 2 h
[2] = test system: K562 myelogenous leukemia cell line; details: for % cell death K562: 72-hour treatment
[3] = test system: H3K4me2 at the promoter of the IGFBP2 gene in NCI-H526 cells; assay: ChIP-qPCR of H3K4me2 at IGFBP2 promoter; format: cell-based; details: 100 µM, 48 h
[4] = test system: H3K4me2 at the promoter of the FEZ1 gene in NCI-H526 cells; assay: ChIP-qPCR of H3K4me2 at FEZ1 promoter; format: cell-based; details: 100 µM, 48 h
MCF-7 breast cancer line [5] = assay: cells; details: Homo sapiens, MCF7, 72 h, 72-hour treatment
[6] = test system: Calu-6 lung cancer cell line; assay: cells; details: Homo sapiens, Calu-6, 72 h, 72-hour treatment
MCF-7 breast cancer line [7] = details: 2 h
[8] = test system: global H3K4me2 in K562 leukemia cells; assay: Western blot of global H3K4me2, K562
[9] = test system: global H3K4me2 in Calu6 lung adenocarcinoma cells; assay: Western blot of global H3K4me2, Calu6; details: 10 µM, 48-hour exposure
MCF-7 breast cancer line [10] = details: read-out: IC50 (MCF7); cited from earlier work
[11] = test system: Calu-6 lung cancer cell line; details: read-out: IC50 (Calu-6); cited from earlier work
recombinant LSD1 = details: cited from earlier work
LSD1 bound to CoREST = details: read-out: Ki, LSD1 bound to CoREST; cited from earlier work

H-ARAM c[K^5TARK^9E^10]TG-NH2 [Compound 23]
% inhibition of LSD1 at 500 nM (recombinant LSD1/CoREST): 67.3% and 67.31 ± 5.81%
% cell death Calu 6 [1]: inactive
% cell death K562 ([2]; 1.0 µM): 90 ± 9.4%
% cell death K562 ([2]; 100 µM): 18 ± 3.7%

Cl.Cl.c1ccc([C@@H]2C[C@H]2NC2CCNCC2)cc1 [GSK-LSD1, reference compound]
H3K4me2 levels at the IGFBP2 promoter [3]: increases H3K4me2 marks; also recorded: somewhat less effective
H3K4me2 levels at the FEZ1 promoter [4]: increases H3K4me2 marks; also recorded: somewhat less effective

N=C(NCCCNCCCCCCCNCCCNC(=N)NC(=N)NCCC(c1ccccc1)c1ccccc1)NC(=N)NCCC(c1ccccc1)c1ccccc1 [Compound 3, verlindamycin]
IC50 (MCF-7 breast cancer line [5]; read-out: IC50 (MCF7), Table 2): 5.1 µM
IC50 (MCF-7 breast cancer line [5]; read-out: IC50 (MCF7), Table 6): 2.5 µM
IC50 ([6]; read-out: IC50 (Calu-6), Table 2): 6.3 µM
IC50 ([6]; read-out: IC50 (Calu-6), Table 6): 1.6 µM

CCCCCCCC(=O)NCCCC[C@H](NC(=O)[C@H](C)NC(=O)[C@H](CC(C)C)NC(=O)[C@H](CCC(N)=O)NC(=O)[C@H](CCCCN)NC(=O)[C@H](CCCNC(=N)N)NC(=O)[C@@H]1CCCN1C(=O)[C@H](C)NC(=O)[C@H](CCCCN)NC(=O)CNC(=O)CNC(=O)[C@@H](NC(=O)[C@@H]1CCC(=O)NCCCC[C@H](NC(=O)[C@H](CCSC)NC(=O)[C@H](C)NC(=O)[C@H](CCCNC(=N)N)NC(=O)[C@H](C)N)C(=O)N[C@@H]([C@@H](C)O)C(=O)N[C@@H](C)C(=O)N[C@@H](CCCNC(=N)N)C(=O)N[C@@H](CCCCN)C(=O)N1)[C@@H](C)O)C(N)=O [Compound 28] (H-ARAMKTARKETGGKAPRKQLAK(Octanoyl)-NH2; lactam 5-10)
H3K4me2 levels at the IGFBP2 promoter [3]: greatest increase; also recorded: increases H3K4me2 marks
H3K4me2 levels at the FEZ1 promoter [4]: greatest increase; also recorded: increases H3K4me2 marks
IC50 (MCF-7 breast cancer line [7]): 28.1 µM
IC50 [1]: 40.2 µM
IC50 ([2]; 2 h): 95.1 µM
dose dependence of H3K4 methylation ([8]; 0.1 µM and 1.0 µM, 48 h, preliminary study): modest dose dependent increase
change in global H3K4 methylation compared to control [9]: did not induce any changes

H-ARTM-c[K^5TARK^9E^10]TGGK^14APRKQLA-NH2 [Compound 9]
IC50 (MCF-7 breast cancer line [10]): 153 µM
IC50 [11]: 158 µM

H-ARAM c[K^5TARK^9E^10]TGG-K^14A-NH2 [Compound 22]
% inhibition of LSD1 at 500 nM (recombinant LSD1/CoREST): 73.4% and 73.43 ± 3.75%
% cell death Calu 6 [1]: inactive
% cell death K562 ([2]; 1.0 µM): 53 ± 11.3%
% cell death K562 ([2]; 100 µM): 11 ± 3.2%

CCCCCCCCCCCCCCCCCC(=O)NCCCC[C@H](NC(=O)[C@H](C)NC(=O)[C@H](CC(C)C)NC(=O)[C@H](CCC(N)=O)NC(=O)[C@H](CCCCN)NC(=O)[C@H](CCCNC(=N)N)NC(=O)[C@@H]1CCCN1C(=O)[C@H](C)NC(=O)[C@H](CCCCN)NC(=O)CNC(=O)CNC(=O)[C@@H](NC(=O)[C@@H]1CCC(=O)NCCCC[C@H](NC(=O)[C@H](CCSC)NC(=O)[C@H](C)NC(=O)[C@H](CCCNC(=N)N)NC(=O)[C@H](C)N)C(=O)N[C@@H]([C@@H](C)O)C(=O)N[C@@H](C)C(=O)N[C@@H](CCCNC(=N)N)C(=O)N[C@@H](CCCCN)C(=O)N1)[C@@H](C)O)C(N)=O [Compound 26] (H-ARAMKTARKETGGKAPRKQLAK(Stearoyl)-NH2; lactam 5-10)
IC50 (MCF-7 breast cancer line [7]): < 5 µM
IC50 [1]: < 11 µM

CCCCCCCCCCCCCCCCCC(=O)NCCCC[C@H](NC(=O)[C@H](C)NC(=O)[C@H](CC(C)C)NC(=O)[C@H](CCC(N)=O)NC(=O)[C@H](CCCCN)NC(=O)[C@H](CCCNC(=N)N)NC(=O)[C@@H]1CCCN1C(=O)[C@H](C)NC(=O)[C@H](CCCCN)NC(=O)CNC(=O)CNC(=O)[C@@H](NC(=O)[C@@H]1CCC(=O)NCCCC[C@H](NC(=O)[C@H](CCSC)NC(=O)[C@@H](NC(=O)[C@H](CCCNC(=N)N)NC(=O)[C@H](C)N)[C@@H](C)O)C(=O)N[C@@H]([C@@H](C)O)C(=O)N[C@@H](C)C(=O)N[C@@H](CCCNC(=N)N)C(=O)N[C@@H](CCCCN)C(=O)N1)[C@@H](C)O)C(N)=O [Compound 25]
IC50 (MCF-7 breast cancer line [7]): < 5 µM
IC50 [1]: < 11 µM

CCCCCCCC(=O)NCCCC[C@H](NC(=O)[C@H](C)NC(=O)[C@H](CC(C)C)NC(=O)[C@H](CCC(N)=O)NC(=O)[C@H](CCCCN)NC(=O)[C@H](CCCNC(=N)N)NC(=O)[C@@H]1CCCN1C(=O)[C@H](C)NC(=O)[C@H](CCCCN)NC(=O)CNC(=O)CNC(=O)[C@@H](NC(=O)[C@@H]1CCC(=O)NCCCC[C@H](NC(=O)[C@H](CCSC)NC(=O)[C@@H](NC(=O)[C@H](CCCNC(=N)N)NC(=O)[C@H](C)N)[C@@H](C)O)C(=O)N[C@@H]([C@@H](C)O)C(=O)N[C@@H](C)C(=O)N[C@@H](CCCNC(=N)N)C(=O)N[C@@H](CCCCN)C(=O)N1)[C@@H](C)O)C(N)=O [Compound 27]
H3K4me2 levels at the IGFBP2 promoter [3]: increases H3K4me2 marks
H3K4me2 levels at the FEZ1 promoter [4]: increases H3K4me2 marks
IC50 (MCF-7 breast cancer line [7]): 36.1 µM
IC50 [1]: 92.4 µM
increase in global H3K4me2 compared to control ([8]; 10 µM, 48-hour exposure, normalized to GAPDH): 17.6 fold
change in global H3K4 methylation compared to control [9]: did not induce any changes

H-ARAM c[K^5TARK^9E^10]TGG-K^14APRK-NH2 [Compound 21]
% cell death K562 ([2]; 1.0 µM): 59 ± 8.1%
% cell death K562 ([2]; 100 µM): 9.5 ± 6.7%

H-ARAM c[K^5TARK^9E^10] -NH2 [Compound 24]
% inhibition of LSD1 at 500 nM (recombinant LSD1/CoREST): 59.8% and 59.78 ± 5.71%
% cell death Calu 6 [1]: inactive

H-ARTMK^5TARKS^10TGGKAPRKQLA-OH [Compound 8]
IC50 (recombinant LSD1; read-out: IC50 (LSD1)): 0.051 µM
Ki (recombinant LSD1; read-out: Ki (LSD1)): 0.04 µM
Ki (LSD1 bound to CoREST): 0.05 µM
